Reference: the CheMixHub ionic liquid set
± gives the uncertainty stated by the source.

Assay: xn = mol fraction of the nth substance listed

[Cl][Al]([Cl])[Cl] + CCCC[n+]1ccn(C)c1.[Cl-]
electrical conductivity (270.1 K, 101.3 kPa, x2 = 0.5263): 0.158 ± 0.016 S/m
electrical conductivity (270.1 K, 101.3 kPa, x2 = 0.5556): 0.0827 ± 0.0083 S/m
electrical conductivity (275.6 K, 101.3 kPa, x2 = 0.3333): 0.36 ± 0.036 S/m
electrical conductivity (275.6 K, 101.3 kPa, x2 = 0.3636): 0.38 ± 0.038 S/m
electrical conductivity (275.6 K, 101.3 kPa, x2 = 0.4): 0.412 ± 0.041 S/m
electrical conductivity (275.6 K, 101.3 kPa, x2 = 0.4348): 0.408 ± 0.041 S/m
electrical conductivity (276.1 K, 101.3 kPa, x2 = 0.4762): 0.415 ± 0.042 S/m
electrical conductivity (276.1 K, 101.3 kPa, x2 = 0.5): 0.423 ± 0.042 S/m
electrical conductivity (276.1 K, 101.3 kPa, x2 = 0.5556): 0.135 ± 0.013 S/m
electrical conductivity (281.1 K, 101.3 kPa, x2 = 0.5263): 0.328 ± 0.033 S/m
electrical conductivity (281.1 K, 101.3 kPa, x2 = 0.5556): 0.189 ± 0.019 S/m
electrical conductivity (284.65 K, 101.3 kPa, x2 = 0.3333): 0.578 ± 0.058 S/m
electrical conductivity (284.65 K, 101.3 kPa, x2 = 0.3636): 0.588 ± 0.059 S/m
electrical conductivity (284.65 K, 101.3 kPa, x2 = 0.4): 0.582 ± 0.058 S/m
electrical conductivity (284.65 K, 101.3 kPa, x2 = 0.4348): 0.599 ± 0.06 S/m
electrical conductivity (284.65 K, 101.3 kPa, x2 = 0.4762): 0.608 ± 0.061 S/m
electrical conductivity (284.65 K, 101.3 kPa, x2 = 0.5): 0.616 ± 0.062 S/m
electrical conductivity (293.65 K, 101.3 kPa, x2 = 0.3333): 0.774 ± 0.077 S/m
electrical conductivity (293.65 K, 101.3 kPa, x2 = 0.3636): 0.803 ± 0.08 S/m
electrical conductivity (295.65 K, 101.3 kPa, x2 = 0.4): 0.855 ± 0.085 S/m
electrical conductivity (295.65 K, 101.3 kPa, x2 = 0.4348): 0.911 ± 0.091 S/m
electrical conductivity (295.65 K, 101.3 kPa, x2 = 0.4762): 0.883 ± 0.088 S/m
electrical conductivity (295.65 K, 101.3 kPa, x2 = 0.5): 0.916 ± 0.092 S/m
electrical conductivity (296.65 K, 101.3 kPa, x2 = 0.5263): 0.639 ± 0.064 S/m
electrical conductivity (296.65 K, 101.3 kPa, x2 = 0.5556): 0.417 ± 0.042 S/m
electrical conductivity (298.15 K, 101 kPa, x1 = 0.545): 0.98 ± 0.01 S/m
viscosity (298.15 K, 101 kPa, x1 = 0.545): 28.92 ± 0.38 mPa·s
viscosity (303.15 K, 101 kPa, x1 = 0.5238): 26.36 ± 0.34 mPa·s
viscosity (303.15 K, 101 kPa, x1 = 0.5653): 22.62 ± 0.3 mPa·s
viscosity (303.15 K, 101 kPa, x1 = 0.6429): 17.68 ± 0.24 mPa·s
electrical conductivity (303.15 K, 101 kPa, x1 = 0.643): 1.06 ± 0.011 S/m
viscosity (303.15 K, 101 kPa, x1 = 0.643): 17.7 ± 0.24 mPa·s
electrical conductivity (303.15 K, 101 kPa, x1 = 0.667): 1.05 ± 0.011 S/m
electrical conductivity (303.15 K, 101.3 kPa, x2 = 0.3333): 1.02 ± 0.1 S/m
electrical conductivity (304.15 K, 101.3 kPa, x2 = 0.3333): 1.05 ± 0.1 S/m
electrical conductivity (304.65 K, 101.3 kPa, x2 = 0.5263): 0.868 ± 0.087 S/m
electrical conductivity (304.65 K, 101.3 kPa, x2 = 0.5556): 0.586 ± 0.059 S/m
electrical conductivity (305.15 K, 101.3 kPa, x2 = 0.3333): 1.07 ± 0.11 S/m
electrical conductivity (305.15 K, 101.3 kPa, x2 = 0.4): 1.14 ± 0.11 S/m
electrical conductivity (305.15 K, 101.3 kPa, x2 = 0.5): 1.25 ± 0.12 S/m
electrical conductivity (306.15 K, 101 kPa, frequency 1 MHz, x2 = 0.625): 0.227 ± 0.0045 S/m
electrical conductivity (306.15 K, 101.3 kPa, x2 = 0.3636): 1.16 ± 0.12 S/m
electrical conductivity (306.15 K, 101.3 kPa, x2 = 0.4348): 1.22 ± 0.12 S/m
electrical conductivity (308.15 K, 101 kPa, x1 = 0.615): 1.23 ± 0.013 S/m
viscosity (308.15 K, 101 kPa, x1 = 0.615): 16.72 ± 0.22 mPa·s
electrical conductivity (315.15 K, 101.3 kPa, x2 = 0.4762): 1.57 ± 0.16 S/m
electrical conductivity (315.15 K, 101.3 kPa, x2 = 0.5263): 1.2 ± 0.12 S/m
electrical conductivity (315.15 K, 101.3 kPa, x2 = 0.5556): 0.851 ± 0.085 S/m
electrical conductivity (316.15 K, 101.3 kPa, x2 = 0.3333): 1.41 ± 0.14 S/m
electrical conductivity (316.15 K, 101.3 kPa, x2 = 0.4): 1.5 ± 0.15 S/m
electrical conductivity (316.15 K, 101.3 kPa, x2 = 0.5): 1.68 ± 0.17 S/m
electrical conductivity (318.15 K, 101 kPa, x1 = 0.667): 1.5 ± 0.015 S/m
viscosity (318.15 K, 101 kPa, x1 = 0.667): 11.35 ± 0.15 mPa·s
electrical conductivity (318.15 K, 101.3 kPa, x2 = 0.3636): 1.54 ± 0.15 S/m
electrical conductivity (318.15 K, 101.3 kPa, x2 = 0.4348): 1.69 ± 0.17 S/m
electrical conductivity (322.15 K, 101.3 kPa, x2 = 0.3333): 1.62 ± 0.16 S/m
viscosity (323.15 K, 101 kPa, x1 = 0.5): 16.06 ± 0.21 mPa·s
viscosity (323.15 K, 101 kPa, x1 = 0.6296): 11.12 ± 0.15 mPa·s
electrical conductivity (324.15 K, 101.3 kPa, x2 = 0.5): 1.98 ± 0.2 S/m
electrical conductivity (324.15 K, 101.3 kPa, x2 = 0.5263): 1.5 ± 0.15 S/m
electrical conductivity (324.15 K, 101.3 kPa, x2 = 0.5556): 1.09 ± 0.11 S/m
electrical conductivity (325.15 K, 101.3 kPa, x2 = 0.4): 1.87 ± 0.19 S/m
electrical conductivity (326.15 K, 101.3 kPa, x2 = 0.3636): 1.82 ± 0.18 S/m
electrical conductivity (326.15 K, 101.3 kPa, x2 = 0.4348): 1.95 ± 0.19 S/m
electrical conductivity (328.15 K, 101 kPa, x1 = 0.643): 1.88 ± 0.019 S/m
viscosity (328.15 K, 101 kPa, x1 = 0.643): 9.76 ± 0.13 mPa·s
electrical conductivity (331.15 K, 101.3 kPa, x2 = 0.4762): 2.25 ± 0.23 S/m
electrical conductivity (332.15 K, 101.3 kPa, x2 = 0.3333): 2 ± 0.2 S/m
viscosity (333.15 K, 101 kPa, x1 = 0.5238): 12.28 ± 0.16 mPa·s
viscosity (333.15 K, 101 kPa, x1 = 0.6001): 9.9 ± 0.13 mPa·s
electrical conductivity (333.15 K, 101 kPa, x1 = 0.615): 2.16 ± 0.022 S/m
viscosity (333.15 K, 101 kPa, x1 = 0.615): 9.5 ± 0.14 mPa·s
viscosity (333.15 K, 101 kPa, x1 = 0.6296): 9.15 ± 0.12 mPa·s
electrical conductivity (333.15 K, 101.3 kPa, x2 = 0.4): 2.21 ± 0.22 S/m
electrical conductivity (333.15 K, 101.3 kPa, x2 = 0.5): 2.43 ± 0.24 S/m
electrical conductivity (334.15 K, 101.3 kPa, x2 = 0.3636): 2.15 ± 0.21 S/m
electrical conductivity (334.15 K, 101.3 kPa, x2 = 0.4348): 2.33 ± 0.23 S/m
electrical conductivity (334.15 K, 101.3 kPa, x2 = 0.5263): 1.94 ± 0.19 S/m
electrical conductivity (334.15 K, 101.3 kPa, x2 = 0.5556): 1.42 ± 0.14 S/m
electrical conductivity (340.15 K, 101.3 kPa, x2 = 0.3333): 2.29 ± 0.23 S/m
electrical conductivity (340.15 K, 101.3 kPa, x2 = 0.4762): 2.65 ± 0.27 S/m
electrical conductivity (342.15 K, 101.3 kPa, x2 = 0.3636): 2.45 ± 0.25 S/m
electrical conductivity (342.65 K, 101.3 kPa, x2 = 0.4348): 2.72 ± 0.27 S/m
viscosity (343.15 K, 101 kPa, x1 = 0.5834): 8.63 ± 0.11 mPa·s
electrical conductivity (343.15 K, 101.3 kPa, x2 = 0.4): 2.62 ± 0.26 S/m
electrical conductivity (343.65 K, 101.3 kPa, x2 = 0.5): 2.92 ± 0.29 S/m
electrical conductivity (344.15 K, 101.3 kPa, x2 = 0.5263): 2.39 ± 0.24 S/m
electrical conductivity (345.15 K, 101.3 kPa, x2 = 0.5556): 1.81 ± 0.18 S/m
electrical conductivity (347.15 K, 101.3 kPa, x2 = 0.3333): 2.58 ± 0.26 S/m
electrical conductivity (347.15 K, 101.3 kPa, x2 = 0.4762): 3.04 ± 0.3 S/m
electrical conductivity (350.15 K, 101.3 kPa, x2 = 0.3636): 2.86 ± 0.29 S/m
electrical conductivity (351.15 K, 101.3 kPa, x2 = 0.4348): 3.15 ± 0.32 S/m
electrical conductivity (351.65 K, 101.3 kPa, x2 = 0.4): 3.02 ± 0.3 S/m
electrical conductivity (351.65 K, 101.3 kPa, x2 = 0.5): 3.33 ± 0.33 S/m
electrical conductivity (352.15 K, 101.3 kPa, x2 = 0.5263): 2.81 ± 0.28 S/m
electrical conductivity (352.15 K, 101.3 kPa, x2 = 0.5556): 2.12 ± 0.21 S/m
electrical conductivity (358.15 K, 101.3 kPa, x2 = 0.3333): 3 ± 0.3 S/m
electrical conductivity (358.15 K, 101.3 kPa, x2 = 0.4762): 3.59 ± 0.36 S/m
electrical conductivity (360.15 K, 101.3 kPa, x2 = 0.3636): 3.29 ± 0.33 S/m
electrical conductivity (360.15 K, 101.3 kPa, x2 = 0.4348): 3.59 ± 0.36 S/m
electrical conductivity (361.15 K, 101.3 kPa, x2 = 0.4): 3.46 ± 0.35 S/m
electrical conductivity (361.15 K, 101.3 kPa, x2 = 0.5): 3.86 ± 0.39 S/m
electrical conductivity (361.65 K, 101.3 kPa, x2 = 0.5263): 3.32 ± 0.33 S/m
electrical conductivity (361.65 K, 101.3 kPa, x2 = 0.5556): 2.56 ± 0.26 S/m
electrical conductivity (367.15 K, 101.3 kPa, x2 = 0.3333): 3.41 ± 0.34 S/m
electrical conductivity (367.15 K, 101.3 kPa, x2 = 0.4762): 4.14 ± 0.41 S/m
electrical conductivity (370.15 K, 101.3 kPa, x2 = 0.3636): 3.7 ± 0.37 S/m
electrical conductivity (370.15 K, 101.3 kPa, x2 = 0.4348): 4.08 ± 0.41 S/m
electrical conductivity (370.15 K, 101.3 kPa, x2 = 0.5263): 3.76 ± 0.38 S/m
electrical conductivity (370.15 K, 101.3 kPa, x2 = 0.5556): 2.97 ± 0.3 S/m
electrical conductivity (371.15 K, 101.3 kPa, x2 = 0.4): 3.96 ± 0.4 S/m
electrical conductivity (371.15 K, 101.3 kPa, x2 = 0.5): 4.49 ± 0.45 S/m
electrical conductivity (379.15 K, 101.3 kPa, x2 = 0.3333): 4.07 ± 0.41 S/m
electrical conductivity (379.15 K, 101.3 kPa, x2 = 0.4762): 4.87 ± 0.49 S/m
